Tested on: 349418-098-R-PDC spheroids, viability, % test/control
Assay: Anticancer human tumor 349418-098-R-PDC patient-derived lung adenocarcinoma cell line growth inhibition [IpAb]
Details: spheroids with HUVEC and MSC; for IC50: curve of first compound; for viability, T/C: stronger effect = lower value
Source text: Combinatorial screen of targeted agents with ipatasertib and abemaciclib in multi-cell type tumor spheroids
A high-throughput screen of multi-cell type tumor spheroids was designed to identify active combinations of targeted small molecules and ipatasertib or abemaciclib. Complex spheroids include a stromal component modeled by human endothelial cells (HUVEC) and fibroblasts modeled by human mesenchymal stem cells (MSCs). The concentration ranges selected for each drug and investigational agent were based upon clinically achievable concentrations if the clinical Cmax of the agent was known.
Compounds. The drugs and investigational agents: ipatasertib (NSC767898), abemaciclib(NSC768073), selumetinib (NSC741078), trametinib (758246), adavosertib (NSC754352), everolimus (NSC733504), sapanisertib (NSC764658), vemurafenib (NSC761431), venetoclax (NSC766270), copanlisib (NSC809693), apelisib (NSC765974), palbociblib (NSC758247), vemurafenib (NSC761431), dabrafenib (NSC764134), ravoxertinib (NSC781343), BMS-387032 (NSC767048), sotorasib (NSC818433), talazoparib (NSC767125) and afursertib (NSC778305), were obtained from the National Cancer Institute (NCI) Developmental Therapeutics Program Chemical Repository. The FDA-approved anticancer drug set is available from the NCI Developmental Therapeutics Program. […] The stock solutions were prepared in dimethyl sulfoxide (DMSO, Sigma-Aldrich, St. Louis, MO, cat. D2650) at 800-fold the tested concentration and stored at -70 degrees C prior to their use. All drugs and investigational agents were tested over a range starting from a high concentration at or near the clinical Cmax and decreasing in half-log increments. If the clinical Cmax for an agent had not been determined, the highest concentration tested was 10 microM.
NCI60 Cell Culture. NCI60 cell lines were obtained from the NCI Developmental Therapeutics Program Tumor Repository. For each lot of cells, the Repository performed Applied Biosystems AmpFLSTR Identifiler testing with PCR amplification to confirm consistency with the published Identifier STR profile for each cell line. Cells were kept in continuous culture for no more than 20 passages. The optimal seeding densities for each of the cell lines at each time point assessed were determined prior to performing the concentration response studies. Briefly, the NCI60 human tumor lines were grown as monolayers in RPMI 1640 medium supplemented with 10% FBS and 2 mmol/L L-glutamine.
An additional 9 lines were from the NCI60 cell line panel including MDA-MB-231 breast carcinoma, MDA-MB-468 breast carcinoma, MCF7 breast carcinoma, Hs578T breast carcinoma, MALME-3M melanoma, SK-MEL-2 melanoma, SK-OV-3 ovarian carcinoma, DU-145 prostate carcinoma, PC-3 prostate carcinoma, all cell lines along with major genetic alterations are listed on Table 2. Pooled donor human umbilical vein endothelial cells (HUVEC, Lonza, cat. CC-2519) and human mesenchymal stem cells (hMSC, Lonza, cat. PT-2501) were purchased from Lonza (Walkersville, MD).
PDMR cell lines were grown in complete medium (DC medium): Dulbecco's modified Eagle's medium (DMEM)/F12 supplemented with 5% fetal bovine serum (FBS), 2 mM L-glutamine, 100 U/mL penicillin and 100 µg/ml streptomycin, 0.4 µg/ml hydrocortisone, 10 ng/ml epidermal growth factor (EGF) recombinant human protein, 24 µg/mL adenine, and 0.1 mg/mL primocin. During culture from frozen stock vials, PDMR cells were cultured in the same medium containing 10 µM Y-27632 (see Table 3). The PDCs were cultured in complete DMEM/F12 media without 10 microM Y-27632 dihydrochloride for at least two passages prior to the screen. The pooled donor HUVEC and hMSC were cultured in endothelial cell growth medium 2 (PromoCell, Heidelberg, Germany, cat. C-22011) and mesenchymal stem cell growth medium 2 (PromoCell, cat. C-28009), respectively. For all experiments, HUVEC and hMSC were used at passages </=5.
[…]

[1] = second compound 0.01 µM, first compound 0.0316 µM
[2] = second compound 0.01 µM, first compound 0.1 µM
[3] = second compound 0.0316 µM, first compound 0.0316 µM
[4] = second compound 0.0316 µM, first compound 0.1 µM
[5] = second compound 0.1 µM, first compound 0.0316 µM
[6] = second compound 0.1 µM, first compound 0.1 µM
[7] = second compound 0.316 µM, first compound 0.0316 µM
[8] = second compound 0.316 µM, first compound 0.1 µM
[9] = second compound 1 µM, first compound 0.0316 µM
[10] = second compound 1 µM, first compound 0.1 µM
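Also: spheroids exposed to compounds for 7 days.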

## CCCS(=O)(=O)Nc1ccc(F)c(C(=O)c2c[nH]c3ncc(-c4ccc(Cl)cc4)cc23)c1F + CCN1CCN(Cc2ccc(Nc3ncc(F)c(-c4cc(F)c5nc(C)n(C(C)C)c5c4)n3)nc2)CC1
Second compound 0.01 µM
  IC50: 91.3 nM
Second compound 0.0316 µM
  IC50: < 31.6 nM
Second compound 0.1 µM
  IC50: < 31.6 nM
Second compound 0.316 µM
  IC50: < 31.6 nM
Second compound 1 µM
  IC50: < 31.6 nM
[1]
  viability, T/C: 59.7%
[2]
  viability, T/C: 50.3%
Second compound 0.01 µM, first compound 0.316 µM
  viability, T/C: 32.9%
Second compound 0.01 µM, first compound 1 µM
  viability, T/C: 37.3%
Second compound 0.01 µM, first compound 3.16 µM
  viability, T/C: 27.6%
Second compound 0.01 µM, first compound 10 µM
  viability, T/C: 16.7%
[3]
  viability, T/C: 34.7%
[4]
  viability, T/C: 23.7%
Second compound 0.0316 µM, first compound 0.316 µM
  viability, T/C: 27.6%
Second compound 0.0316 µM, first compound 1 µM
  viability, T/C: 28.3%
Second compound 0.0316 µM, first compound 3.16 µM
  viability, T/C: 20.8%
Second compound 0.0316 µM, first compound 10 µM
  viability, T/C: 11.4%
[5]
  viability, T/C: 18.8%
[6]
  viability, T/C: 17.6%
Second compound 0.1 µM, first compound 0.316 µM
  viability, T/C: 17.3%
Second compound 0.1 µM, first compound 1 µM
  viability, T/C: 17.2%
Second compound 0.1 µM, first compound 3.16 µM
  viability, T/C: 14.2%
Second compound 0.1 µM, first compound 10 µM
  viability, T/C: 8.97%
[7]
  viability, T/C: 14.3%
[8]
  viability, T/C: 13.6%
Second compound 0.316 µM, first compound 0.316 µM
  viability, T/C: 12.5%
Second compound 0.316 µM, first compound 1 µM
  viability, T/C: 10.8%
Second compound 0.316 µM, first compound 3.16 µM
  viability, T/C: 10.5%
Second compound 0.316 µM, first compound 10 µM
  viability, T/C: 9.39%
[9]
  viability, T/C: 14.1%
[10]
  viability, T/C: 11.8%
Second compound 1 µM, first compound 0.316 µM
  viability, T/C: 11.1%
Second compound 1 µM, first compound 1 µM
  viability, T/C: 9.39%
Second compound 1 µM, first compound 3.16 µM
  viability, T/C: 9.24%
Second compound 1 µM, first compound 10 µM
  viability, T/C: 7.05%

## CC(C)n1nc(-c2ccc3oc(N)nc3c2)c2c(N)ncnc21 + CCN1CCN(Cc2ccc(Nc3ncc(F)c(-c4cc(F)c5nc(C)n(C(C)C)c5c4)n3)nc2)CC1
Second compound 0.01 µM
  IC50: 0.659 nM
Second compound 0.0316 µM
  IC50: < 0.316 nM
Second compound 0.1 µM
  IC50: < 0.316 nM
Second compound 0.316 µM
  IC50: < 0.316 nM
Second compound 1 µM
  IC50: < 0.316 nM
Second compound 0.01 µM, first compound 0.000316 µM
  viability, T/C: 78.5%
Second compound 0.01 µM, first compound 0.001 µM
  viability, T/C: 33.8%
Second compound 0.01 µM, first compound 0.00316 µM
  viability, T/C: 13.3%
Second compound 0.01 µM, first compound 0.01 µM
  viability, T/C: 8.46%
[1]
  viability, T/C: 7.29%
[2]
  viability, T/C: 6.79%
Second compound 0.0316 µM, first compound 0.000316 µM
  viability, T/C: 38.4%
Second compound 0.0316 µM, first compound 0.001 µM
  viability, T/C: 22.3%
Second compound 0.0316 µM, first compound 0.00316 µM
  viability, T/C: 10.4%
Second compound 0.0316 µM, first compound 0.01 µM
  viability, T/C: 6.7%
[3]
  viability, T/C: 6.75%
[4]
  viability, T/C: 6.38%
Second compound 0.1 µM, first compound 0.000316 µM
  viability, T/C: 26.9%
Second compound 0.1 µM, first compound 0.001 µM
  viability, T/C: 14.9%
Second compound 0.1 µM, first compound 0.00316 µM
  viability, T/C: 10.1%
Second compound 0.1 µM, first compound 0.01 µM
  viability, T/C: 7.85%
[5]
  viability, T/C: 6.9%
[6]
  viability, T/C: 6.67%
Second compound 0.316 µM, first compound 0.000316 µM
  viability, T/C: 20.2%
Second compound 0.316 µM, first compound 0.001 µM
  viability, T/C: 13.6%
Second compound 0.316 µM, first compound 0.00316 µM
  viability, T/C: 9.36%
Second compound 0.316 µM, first compound 0.01 µM
  viability, T/C: 7.22%
[7]
  viability, T/C: 7.46%
[8]
  viability, T/C: 6.4%
Second compound 1 µM, first compound 0.000316 µM
  viability, T/C: 14.4%
Second compound 1 µM, first compound 0.001 µM
  viability, T/C: 12.4%
Second compound 1 µM, first compound 0.00316 µM
  viability, T/C: 8.8%
Second compound 1 µM, first compound 0.01 µM
  viability, T/C: 7.28%
[9]
  viability, T/C: 7.88%
[10]
  viability, T/C: 6.96%

Source: PubChem BioAssay AID2060340 (Molecular Pharmacology Branch, DTP, NCI, 2025)
